Publication PMC12141164, “Phase-1 study of vamotinib (PF-114), a 3rd generation BCR::ABL1 tyrosine kinase-inhibitor, in chronic myeloid leukaemia” (Annals of Hematology, 2025)
Where two headings read alike, the source gives them in different places.

Tests used:
VEGFR2 = conditions: kinase inhibition profiles; cited from earlier work
PDGFRa = conditions: kinase inhibition profiles; cited from earlier work
[1] = Pharmacokinetics in plasma after single- and multiple-dose administration; assay type: in vivo, human
Method: Blood samples were obtained to evaluate pharmacokinetics and pharmacodynamics (Tables S1, S1.1, S1.2). Data on phosphorylated CrkL protein (pCrkL) concentration were evaluated in samples from 4 subjects.
Pharmacokinetic measurements were done on days 1 and 29–30 of treatment. […] Steady-state was reached after 8 days of dosing, Fig. 1.
PF-114 was determined in human plasma samples using validated analytical method. […] The analytical method used 200 µL of plasma sample for each analysis. Analyte was isolated from plasma by a solid-phase extraction procedure performed on Oasis MCX extraction columns.
According to the Protocol, population for the pharmacokinetic analysis consists of all patients, who took at least one dose of PF-114, with respect to which sufficient amount of data on concentration of the study drug in the blood. The analysis of data on pharmacokinetic properties of the drug is carried out in this population of patients. All PK analyses will be presented on two subsets described in more detail below:
The PK concentration set (PK-C): This set includes all treated subjects who have at least 1 measured concentration.
The PK parameter analysis set (PK-P): This set consists of subjects from PK-C, who have no major protocol violation relevant to the evaluation of Pharmacokinetics, and who have at least 1 estimated PK parameter. Listings include all available raw data without any exclusions.

EPHA6 = conditions: kinase inhibition profiles; cited from earlier work
[2] = human, plasma, oral, 50 mg, Multiple-dose administration
[3] = human, plasma, oral, 50 mg, Single-dose administration
[4] = human, plasma, oral, 100 mg, Multiple-dose administration
[5] = human, plasma, oral, 100 mg, Single-dose administration
[6] = human, plasma, oral, 200 mg, Multiple-dose administration
[7] = human, plasma, oral, 200 mg, Single-dose administration
[8] = human, plasma, oral, 300 mg, Multiple-dose administration
[9] = human, plasma, oral, 300 mg, Single-dose administration
[10] = human, plasma, oral, 400 mg, Multiple-dose administration
[11] = human, plasma, oral, 400 mg, Single-dose administration
[12] = human, plasma, oral, 500 mg, Multiple-dose administration
[13] = human, plasma, oral, 500 mg, Single-dose administration
[14] = human, plasma, oral, 600 mg, Multiple-dose administration
[15] = human, plasma, oral, 600 mg, Single-dose administration
[16] = human, plasma, oral, 750 mg, Single-dose administration

For `Cc1ccc(C(=O)Nc2ccc(CN3CCN(C)CC3)c(C(F)(F)F)c2)cc1C#Cc1nnc2ccccn12` [vamotinib], the “inhibition of VEGFR2” value (VEGFR2) is listed as “not”, the “inhibition of PDGFRa” value (PDGFRa) is listed as “potently inhibited” and the “Ctrough, Mean” value ([1]; Multiple-dose administration, 50 mg) is listed as 7,35 ng/ml. For the same compound, the “Ctrough, Mean” value ([1]; Multiple-dose administration, 100 mg) was 8,90 ng/ml, the “Ctrough, Mean” value ([1]; Multiple-dose administration, 200 mg) was 21,92 ng/ml and the “Ctrough, Mean” value ([1]; Multiple-dose administration, 300 mg) was 22,45 ng/ml. The “Ctrough, Mean” value ([1]; Multiple-dose administration, 400 mg) was 35,34 ng/ml, the “Ctrough, Mean” value ([1]; Multiple-dose administration, 500 mg) was 38,40 ng/ml and the “Ctrough, Mean” value ([1]; Multiple-dose administration, 600 mg) was 49,78 ng/ml. For the same compound, the “linearity of pharmacokinetics (concentration-time profiles)” value ([1]; dose range 50–750 mg) was “linear or near-linear pharmacokinetics”, the half-life ([1]; human, plasma, oral) was 13.5 h and the Cmax [1, 2] was 33.3 ng/mL. The Tmax [1, 2] was 1.9 h, the AUC(0-t) ([1]; human, plasma, oral, 50 mg, Multiple-dose administration, 50 mg, read-out: AUC0-24, Mean) was 445 ng·h/mL and the Cmax [1, 3] was 25.3 ng/mL. The Tmax [1, 3] was 2.67 h, the AUC(0-t) ([1]; human, plasma, oral, 50 mg, Single-dose administration, 50 mg, read-out: AUC0-t, Mean) was 252 ng·h/mL and the Cmax [1, 4] was 94 ng/mL. For the same compound, the Tmax [1, 4] was 3.36 h, the AUC(0-t) ([1]; human, plasma, oral, 100 mg, Multiple-dose administration, 100 mg, read-out: AUC0-24, Mean) was 1260 ng·h/mL and the Cmax [1, 5] was 89.7 ng/mL. It also gave a Tmax [1, 5] of 4.67 h, an AUC(0-t) ([1]; human, plasma, oral, 100 mg, Single-dose administration, 100 mg, read-out: AUC0-t, Mean) of 1070 ng·h/mL and a Cmax [1, 6] of 109 ng/mL. It also gave a Tmax [1, 6] of 3.36 h, an AUC(0-t) ([1]; human, plasma, oral, 200 mg, Multiple-dose administration, 200 mg, read-out: AUC0-24, Mean) of 1580 ng·h/mL and a Cmax [1, 7] of 82.1 ng/mL. The Tmax [1, 7] was 3.46 h, the AUC(0-t) ([1]; human, plasma, oral, 200 mg, Single-dose administration, 200 mg, read-out: AUC0-t, Mean) was 1060 ng·h/mL and the Cmax [1, 8] was 148 ng/mL. It also gave a Tmax [1, 8] of 4.52 h, an AUC(0-t) ([1]; human, plasma, oral, 300 mg, Multiple-dose administration, 300 mg, read-out: AUC0-24, Mean) of 2260 ng·h/mL and a Cmax [1, 9] of 125 ng/mL. The Tmax [1, 9] was 3.58 h, the AUC(0-t) ([1]; human, plasma, oral, 300 mg, Single-dose administration, 300 mg, read-out: AUC0-t, Mean) was 1630 ng·h/mL and the Cmax [1, 10] was 177 ng/mL. The Tmax [1, 10] was 4 h, the AUC(0-t) ([1]; human, plasma, oral, 400 mg, Multiple-dose administration, 400 mg, read-out: AUC0-24, Mean) was 2710 ng·h/mL and the Cmax [1, 11] was 120 ng/mL. For the same compound, the Tmax [1, 11] was 4.72 h, the AUC(0-t) ([1]; human, plasma, oral, 400 mg, Single-dose administration, 400 mg, read-out: AUC0-t, Mean) was 1740 ng·h/mL and the Cmax [1, 12] was 228 ng/mL. For the same compound, the Tmax [1, 12] was 4.04 h, the AUC(0-t) ([1]; human, plasma, oral, 500 mg, Multiple-dose administration, 500 mg, read-out: AUC0-24, Mean) was 3490 ng·h/mL and the Cmax [1, 13] was 116 ng/mL. For the same compound, the Tmax [1, 13] was 3.96 h, the AUC(0-t) ([1]; human, plasma, oral, 500 mg, Single-dose administration, 500 mg, read-out: AUC0-t, Mean) was 1500 ng·h/mL and the Cmax [1, 14] was 179 ng/mL. For the same compound, the Tmax [1, 14] was 3.62 h, the AUC(0-t) ([1]; human, plasma, oral, 600 mg, Multiple-dose administration, 600 mg, read-out: AUC0-24, Mean) was 2800 ng·h/mL and the Cmax [1, 15] was 212 ng/mL. The Tmax [1, 15] was 4.65 h, the AUC(0-t) ([1]; human, plasma, oral, 600 mg, Single-dose administration, 600 mg, read-out: AUC0-t, Mean) was 3020 ng·h/mL and the Cmax [1, 16] was 225 ng/mL. The Tmax [1, 16] was 4.5 h, the AUC(0-t) ([1]; human, plasma, oral, 750 mg, Single-dose administration, 750 mg, read-out: AUC0-t, Mean) was 3290 ng·h/mL and the “time of dosing to reach steady-state” value ([1]; once daily dosing) was 8 days. The “concentration in the blood during the day” value ([1]; starting from a dose of 200 mg) was “exceeds 75 nM” and the “inhibition of EPHA6” value (EPHA6) was “not”.
